Data from US20040143014A1, “Therapeutic use of alpha-2-delta ligands” (Pfizer Inc, priority 2002, published 2004).
“Also recorded” adds a separate entry of the source.

Key:
[1] = tested on: citric acid-induced cough; test: Citric acid-induced cough in guinea pigs; conditions: for inhibition of the cough response to citric acid inhalation: aerosolized 1 mM inhaled for 10 min prior to citric acid 0.25 M; for motor activity (behavioral effect, not quantified): guinea pigs, 1 mM aerosolized for 10 min
Description: After the period of acclimatisation to laboratory conditions, animals were individually placed in a transparent perspex box (20×10×10 cm, Vetrotecnica, Italy) ventilated with a constant airflow of 400 ml/min. The tussive agents (citric acid 0.25 M) was nebulised via a mini-ultrasonic nebuliser (Ugo Basile, Italy). […] The appearance of cough was detected by means of a tie-clip microphone (Sony, Japan) and confirmed by the characteristic posture of the animal. The cough sounds were recorded and digitally stored. The number of elicited cough efforts was subsequently counted by a blind observer.
All experiments were carried out at the same time of day. To elicit cough, guinea pigs were exposed to aerosols of citric acid for 10 min.
(§1) Values were presented as mean±standard error of the mean (SEM). Comparisons between groups were made by one way analysis of variance (ANOVA) and the Dunnett's test for multiple comparisons. A p value of <0.05 was considered significant.

human small bronchi [2] = test: Human bronchi contraction produced by electric field stimulation (EFS), organ bath; conditions: 0.1 mM and 1 mM; EFS 30 Hz, 0.5 ms, 10 sec, 70V; with L-NAME, indomethacin, propranolol
Description: In a separate set of experiments, human bronchi were electrically stimulated (30 Hz, 0.5 ms pulse width, duration 10 sec, 70V).

human small bronchi [3] = test: Human bronchi contraction induced by acetylcholine, organ bath; conditions: 0.1 mM and 1 mM, 15 min before the stimulus; ACh 100 nM-10 mM
Description: The human samples were taken from 10 different patients who were undergoing lung resection for a solitary peripheral carcinoma. […] The bronchial rings (from 3 to 11 from each sample) were taken from the lobar or segmental bronchus of the lobe obtained at surgery, away from the tumor site.
Tissues were fixed to the base of the organ bath and connected to an isometric force transducer. […] During the initial stabilization period (90 min) tissues were washed six times. A challenge with acetyl choline (Ach) (1 mM) was performed and after washing, the tissue was allowed to equilibrate for an additional 90 min. To prevent peptide degradation phosphoramidon (1 μM) was added to the bath. Viability of the tissues was tested with the response to ACh (1 mM).
Experiments in human bronchi were performed in the presence of L-NAME (100 μM) to block the production of nitric oxide, indomethacin (5 μM) to block the production of prostanoids and propranolol (1 μM) to block β-adrenoceptors.
as §1

[4] = tested on: citric acid induced cough; conditions: guinea pigs; Lalloo et al., Trevisani et al.; cited from earlier work
rat spinal tissues = conditions: only after inflammation or activation of protein kinase C; Pain 2003, 105, 133-141; cited from earlier work

NC[C@]1(CC(=O)O)C[C@H]2CC[C@H]2C1 [Compound A, (1α, 3α,5α)(3-amino-methyl-bicyclo[3.2.0]hept-3-yl)-acetic acid]
inhibition of the cough response to citric acid inhalation [1]: significant inhibition
motor activity (behavioral effect, not quantified) [1]: some degree of reduction in motor activity
effect on the contractile response produced by EFS (human small bronchi [2]): significant (p<0.05) inhibitory effect
inhibition of the contraction caused by acetylcholine (human small bronchi [3]): did not produce any significant inhibition; also recorded: Absence of effect

Oc1cc2c(cc1O)CN(C(=S)NCCc1ccc(Cl)cc1)CCC2 [capsazepine]
effect on citric acid induced cough [4]: inhibited this response

NCC1(CC(=O)O)CCCCC1 [gabapentin, 1-(aminomethyl)-cyclohexylacetic acid]
inhibition of the cough response to citric acid inhalation [1]: significant inhibition
motor activity (behavioral effect, not quantified) [1]: some degree of reduction in motor activity
effect on the contractile response produced by EFS (human small bronchi [2]): significant (p<0.05) inhibitory effect
inhibition of the contraction caused by acetylcholine (human small bronchi [3]): did not produce any significant inhibition; also recorded: Absence of effect
release of substance P and CGRP (rat spinal tissues): reduce release of substance P and CGRP

C=C(C)[C@]12C[C@@H](C)[C@@]34O[C@](Cc5ccccc5)(O[C@@H]1[C@@H]3C=C(COC(=O)Cc1cc(I)c(O)c(OC)c1)C[C@]1(O)C(=O)C(C)=C[C@@H]41)O2 [iodo-resiniferatoxin]
effect on citric acid induced cough [4]: inhibited this response

CC(C)C[C@H](CN)CC(=O)O [pregabalin, (S)-(+)-4-amino-3-(2-methylpropyl)butanoic acid]
release of substance P and CGRP (rat spinal tissues): reduce release of substance P and CGRP
